Test results: the supplement of paper PMC12463676, “Small-molecule dissolution of stress granules by redox modulation benefits ALS models” (Nature Chemical Biology, 2025)

What was measured:
lipoamide = compound: NC(=O)CCCCC1CCSS1 [lipoamide]; test: thermal stability z-score vs DMSO; higher = more thermally stabilized by treatment; conditions: HeLa, lipoamide concentration 100 µM
Protocol: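 Cellular thermal proteome profiling in HeLa cells. Cells were treated with 100 µM lipoamide for 1 h, with or without 1 mM arsenate for a further 1 h, then heated to ten temperatures (37-66.3 °C), and soluble protein was quantified by TMT mass spectrometry relative to 0.1% DMSO controls. The thermal stability score (sum of log2 fold changes minus the abundance score) was transformed to a z-score; mean of n = 3 experiments.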

potassium arsenate = compound: O=[As]([O-])(O)O.[K+] [potassium arsenate]; test: as above; conditions: HeLa; arsenate concentration 1 mM
Protocol: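 Cellular thermal proteome profiling in HeLa cells treated with 1 mM arsenate for 1 h (DMSO pretreatment), heated to ten temperatures (37-66.3 °C). Soluble protein was quantified by TMT mass spectrometry relative to DMSO controls; the thermal stability score was transformed to a z-score; mean of n = 3 experiments.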

[1] = arsenate co-treatment: 1 mM arsenate 1 h
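Note: each temperature applied for 3 min, abundance score taken as mean log2 fold change at the two lowest temperatures, z-score obtained by mean subtraction and division by SD.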

UniProt P52630, sequence (P52630 whole entry): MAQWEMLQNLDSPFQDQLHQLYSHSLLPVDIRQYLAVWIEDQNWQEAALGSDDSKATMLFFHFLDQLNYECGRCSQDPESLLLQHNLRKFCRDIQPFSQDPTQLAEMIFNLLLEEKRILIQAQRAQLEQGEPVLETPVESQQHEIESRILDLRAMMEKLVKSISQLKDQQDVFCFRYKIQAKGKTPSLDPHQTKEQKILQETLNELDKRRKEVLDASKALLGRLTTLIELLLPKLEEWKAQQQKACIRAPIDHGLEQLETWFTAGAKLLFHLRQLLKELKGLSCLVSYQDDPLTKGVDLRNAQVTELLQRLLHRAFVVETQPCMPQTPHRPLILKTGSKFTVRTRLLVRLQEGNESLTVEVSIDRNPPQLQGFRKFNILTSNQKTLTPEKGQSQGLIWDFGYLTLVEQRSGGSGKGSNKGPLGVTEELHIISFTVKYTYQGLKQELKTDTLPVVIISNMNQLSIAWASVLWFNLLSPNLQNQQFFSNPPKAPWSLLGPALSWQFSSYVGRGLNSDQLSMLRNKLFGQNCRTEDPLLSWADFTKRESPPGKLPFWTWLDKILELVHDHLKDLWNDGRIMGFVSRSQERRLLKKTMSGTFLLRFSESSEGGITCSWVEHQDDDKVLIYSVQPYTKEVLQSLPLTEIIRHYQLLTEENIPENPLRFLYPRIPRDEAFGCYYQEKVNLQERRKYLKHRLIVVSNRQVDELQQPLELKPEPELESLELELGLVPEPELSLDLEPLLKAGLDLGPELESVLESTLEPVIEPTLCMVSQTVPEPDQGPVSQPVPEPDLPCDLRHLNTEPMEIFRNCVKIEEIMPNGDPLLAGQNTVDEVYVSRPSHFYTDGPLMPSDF
UniProt P08243, sequence (P08243 whole entry): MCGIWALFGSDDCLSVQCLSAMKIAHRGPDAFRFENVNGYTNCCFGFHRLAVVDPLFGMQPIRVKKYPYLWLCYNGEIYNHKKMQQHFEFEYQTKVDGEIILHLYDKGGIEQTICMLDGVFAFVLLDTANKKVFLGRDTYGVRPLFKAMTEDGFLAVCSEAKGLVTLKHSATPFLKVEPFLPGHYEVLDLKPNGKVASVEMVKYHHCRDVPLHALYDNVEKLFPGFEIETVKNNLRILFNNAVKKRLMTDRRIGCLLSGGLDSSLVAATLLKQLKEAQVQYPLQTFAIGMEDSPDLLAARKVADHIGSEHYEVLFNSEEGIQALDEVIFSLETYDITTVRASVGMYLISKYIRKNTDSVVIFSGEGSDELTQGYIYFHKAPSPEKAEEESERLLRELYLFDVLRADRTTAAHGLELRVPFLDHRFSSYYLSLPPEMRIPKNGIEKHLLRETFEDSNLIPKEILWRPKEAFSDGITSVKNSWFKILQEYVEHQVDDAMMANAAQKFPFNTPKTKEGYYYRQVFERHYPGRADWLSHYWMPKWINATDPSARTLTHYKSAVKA
UniProt Q9Y2T3, sequence (Q9Y2T3 whole entry): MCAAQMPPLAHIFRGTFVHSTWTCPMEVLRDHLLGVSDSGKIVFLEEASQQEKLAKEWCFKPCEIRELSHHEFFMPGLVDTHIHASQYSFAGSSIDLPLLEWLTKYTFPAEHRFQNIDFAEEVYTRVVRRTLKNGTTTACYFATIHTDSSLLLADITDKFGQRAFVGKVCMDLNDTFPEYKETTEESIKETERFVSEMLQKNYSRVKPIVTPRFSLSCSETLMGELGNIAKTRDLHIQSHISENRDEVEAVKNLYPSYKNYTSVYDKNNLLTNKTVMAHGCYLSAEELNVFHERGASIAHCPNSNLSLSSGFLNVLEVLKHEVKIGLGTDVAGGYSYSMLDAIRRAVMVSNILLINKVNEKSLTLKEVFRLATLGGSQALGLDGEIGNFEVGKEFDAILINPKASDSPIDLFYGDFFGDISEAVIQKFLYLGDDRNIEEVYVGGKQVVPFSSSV
UniProt Q9Y618, sequence (Q9Y618 whole entry): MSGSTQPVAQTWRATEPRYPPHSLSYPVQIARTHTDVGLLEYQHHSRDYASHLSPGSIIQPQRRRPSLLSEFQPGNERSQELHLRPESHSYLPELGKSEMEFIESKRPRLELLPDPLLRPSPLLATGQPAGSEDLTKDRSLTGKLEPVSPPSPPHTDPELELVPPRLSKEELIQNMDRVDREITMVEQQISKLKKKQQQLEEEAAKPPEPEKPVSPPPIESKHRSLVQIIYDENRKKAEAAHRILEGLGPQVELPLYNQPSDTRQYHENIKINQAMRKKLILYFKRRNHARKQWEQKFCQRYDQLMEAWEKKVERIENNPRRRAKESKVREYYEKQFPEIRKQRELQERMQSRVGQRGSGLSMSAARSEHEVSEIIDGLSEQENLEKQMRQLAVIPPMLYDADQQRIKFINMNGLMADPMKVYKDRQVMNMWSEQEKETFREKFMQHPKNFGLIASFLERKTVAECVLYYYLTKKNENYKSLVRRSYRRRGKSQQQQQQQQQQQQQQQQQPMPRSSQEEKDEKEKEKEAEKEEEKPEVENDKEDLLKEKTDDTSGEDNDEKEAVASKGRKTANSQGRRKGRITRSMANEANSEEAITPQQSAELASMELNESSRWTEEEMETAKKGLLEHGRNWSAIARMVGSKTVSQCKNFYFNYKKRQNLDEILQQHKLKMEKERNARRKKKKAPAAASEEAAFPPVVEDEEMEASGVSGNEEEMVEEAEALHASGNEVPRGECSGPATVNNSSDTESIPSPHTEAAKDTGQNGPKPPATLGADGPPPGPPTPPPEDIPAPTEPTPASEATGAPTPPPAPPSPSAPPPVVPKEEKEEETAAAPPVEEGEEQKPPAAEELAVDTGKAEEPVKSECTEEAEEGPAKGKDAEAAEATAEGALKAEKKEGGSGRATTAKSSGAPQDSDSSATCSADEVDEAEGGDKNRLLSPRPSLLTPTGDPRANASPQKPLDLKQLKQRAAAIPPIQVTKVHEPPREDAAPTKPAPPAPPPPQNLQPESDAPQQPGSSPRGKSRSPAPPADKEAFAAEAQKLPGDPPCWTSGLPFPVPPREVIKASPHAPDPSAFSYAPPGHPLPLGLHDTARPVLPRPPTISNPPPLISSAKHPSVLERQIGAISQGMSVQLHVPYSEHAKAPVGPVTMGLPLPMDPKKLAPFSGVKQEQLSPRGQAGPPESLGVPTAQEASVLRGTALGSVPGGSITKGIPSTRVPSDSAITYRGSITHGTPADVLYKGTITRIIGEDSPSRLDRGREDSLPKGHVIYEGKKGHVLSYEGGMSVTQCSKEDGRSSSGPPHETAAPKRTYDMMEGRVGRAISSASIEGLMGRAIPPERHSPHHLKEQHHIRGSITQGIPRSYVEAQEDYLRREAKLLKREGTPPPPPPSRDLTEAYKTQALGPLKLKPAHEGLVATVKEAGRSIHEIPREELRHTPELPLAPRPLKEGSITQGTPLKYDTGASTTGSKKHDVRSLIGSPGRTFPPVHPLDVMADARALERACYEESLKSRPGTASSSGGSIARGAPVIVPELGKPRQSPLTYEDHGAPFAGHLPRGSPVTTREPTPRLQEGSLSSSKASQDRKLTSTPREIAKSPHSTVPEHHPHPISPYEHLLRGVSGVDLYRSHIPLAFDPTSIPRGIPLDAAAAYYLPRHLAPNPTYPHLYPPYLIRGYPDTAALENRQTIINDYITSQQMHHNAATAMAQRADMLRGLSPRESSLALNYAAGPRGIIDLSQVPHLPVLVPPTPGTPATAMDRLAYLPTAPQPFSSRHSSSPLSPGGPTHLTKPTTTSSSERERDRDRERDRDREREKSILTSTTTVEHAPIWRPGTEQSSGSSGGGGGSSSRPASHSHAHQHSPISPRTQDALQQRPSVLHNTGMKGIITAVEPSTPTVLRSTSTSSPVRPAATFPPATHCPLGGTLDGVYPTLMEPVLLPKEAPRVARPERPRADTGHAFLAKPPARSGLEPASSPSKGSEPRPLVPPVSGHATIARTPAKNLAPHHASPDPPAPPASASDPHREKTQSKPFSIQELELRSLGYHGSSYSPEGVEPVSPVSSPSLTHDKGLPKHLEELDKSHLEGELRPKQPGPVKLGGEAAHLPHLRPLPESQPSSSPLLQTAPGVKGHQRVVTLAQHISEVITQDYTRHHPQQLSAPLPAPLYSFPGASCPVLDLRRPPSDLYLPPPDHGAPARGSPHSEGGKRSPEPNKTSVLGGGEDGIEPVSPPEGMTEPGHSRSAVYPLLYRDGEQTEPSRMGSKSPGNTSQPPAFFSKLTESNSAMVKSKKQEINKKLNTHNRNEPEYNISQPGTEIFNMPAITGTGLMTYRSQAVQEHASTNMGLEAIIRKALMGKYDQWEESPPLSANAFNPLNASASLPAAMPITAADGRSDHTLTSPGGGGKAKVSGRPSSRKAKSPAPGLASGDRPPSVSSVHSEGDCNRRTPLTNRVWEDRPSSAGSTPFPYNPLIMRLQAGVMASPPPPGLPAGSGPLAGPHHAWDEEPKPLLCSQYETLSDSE
UniProt O14495, sequence (O14495 whole entry): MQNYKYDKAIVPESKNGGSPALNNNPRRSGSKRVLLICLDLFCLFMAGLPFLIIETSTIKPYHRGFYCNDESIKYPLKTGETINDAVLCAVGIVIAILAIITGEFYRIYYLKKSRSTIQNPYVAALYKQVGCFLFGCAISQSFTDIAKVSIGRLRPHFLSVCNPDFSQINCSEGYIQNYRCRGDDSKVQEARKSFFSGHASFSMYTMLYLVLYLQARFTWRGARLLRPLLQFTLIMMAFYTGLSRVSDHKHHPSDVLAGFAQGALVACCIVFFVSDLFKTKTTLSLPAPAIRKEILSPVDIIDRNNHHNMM
UniProt P28289, sequence (P28289 whole entry): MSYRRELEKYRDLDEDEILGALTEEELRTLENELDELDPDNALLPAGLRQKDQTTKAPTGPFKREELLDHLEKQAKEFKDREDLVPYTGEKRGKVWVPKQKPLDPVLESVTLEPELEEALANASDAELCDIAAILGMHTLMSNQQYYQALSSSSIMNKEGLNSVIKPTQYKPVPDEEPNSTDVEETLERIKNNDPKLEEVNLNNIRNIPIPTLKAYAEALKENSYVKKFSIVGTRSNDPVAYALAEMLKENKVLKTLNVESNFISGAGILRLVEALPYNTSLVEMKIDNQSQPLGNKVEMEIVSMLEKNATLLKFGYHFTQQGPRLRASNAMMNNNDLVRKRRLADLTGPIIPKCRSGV

Target	thermal stability z-score (lipoamide; [1])	thermal stability z-score (lipoamide; arsenate co-treatment: none)	thermal stability z-score (potassium arsenate)
SMARCD1 (UniProt Q96GM5)	-0.0223	0.0841	-0.164
CRELD2 (UniProt Q6UXH1)	-6.65	-6.33	-0.0409
TMEM23|SGMS1	0.177	-0.142	-0.151
YWHAE (UniProt P62258)	0.149	0.0341	-0.368
UBAP1 (UniProt Q9NZ09)	-1.2	-0.177	-0.964
SMC6 (UniProt Q96SB8)	-0.138	0.113	0.067
SMC4 (UniProt Q9NTJ3)	0.387	1.46	0.763
CLASP1 (UniProt Q7Z460)	-0.602	-0.311	-0.0658
TSPAN13 (UniProt O95857)	0.229	0.441	-0.0847
VPS18 (UniProt Q9P253)	-0.401	-0.805	0.788
CKAP5 (UniProt Q14008)	-0.095	-0.0102	0.286
TRMT10C (UniProt Q7L0Y3)	-0.602	-0.191	0.226
NCOR2 (UniProt Q9Y618)	0.182	0.227	0.138
TAMM41 (UniProt Q96BW9)	-0.232	0.102	0.161
CHID1 (UniProt Q9BWS9)	-3.11	-1.7	1.18
TRIO (UniProt O75962)	-0.939	-0.335	0.0185
GSTT2|GSTT2B|EM	0.517	0.277	-0.23
NEK6 (UniProt Q9HC98)	-0.181	-0.266	-0.209
ME3 (UniProt Q16798)	1.29	1.51	0.6
HSPB8 (UniProt Q9UJY1)	-0.255	0.0407	-0.597
RAD54B (UniProt Q9Y620)	-0.335	-0.346	-0.753
LUC7L3 (UniProt O95232)	-1.15	-0.26	-0.899
AKR1B1 (UniProt P15121)	0.596	0.698	1.19
ZMPSTE24 (UniProt O75844)	0.105	-0.234	0.325
NSF (UniProt P46459)	-0.331	-0.0542	0.232
CRYBG3 (UniProt Q68DQ2)	-0.828	0.00468	-0.00726
ENDOD1 (UniProt O94919)	-1.14	-0.77	0.443
CCNB2 (UniProt O95067)	0.346	-0.108	0.36

Target	thermal stability z-score (lipoamide; [1])	thermal stability z-score (lipoamide; arsenate co-treatment: none)	thermal stability z-score (potassium arsenate)
TIMM17B (UniProt O60830)	0.0946	-0.362	0.173
STAT2 (UniProt P52630)	-0.0423	0.0157	0.171
FLOT1 (UniProt O75955)	1.38	0.653	-0.283
MPRIP (UniProt Q6WCQ1)	0.435	0.401	0.452
STK38L (UniProt Q9Y2H1)	0.0467	0.0651	0.201
CCND1 (UniProt P24385)	-0.0213	-0.202	0.0378
TMEM131 (UniProt Q92545)	-1.03	0.061	0.83
MDC1 (UniProt Q14676)	0.374	0.00253	-0.363
DHRS3 (UniProt O75911)	-0.614	-0.616	-0.762
ASNS (UniProt P08243)	1.69	0.131	-0.303
KYAT3 (UniProt Q6YP21)	-0.0731	0.185	-0.182
METTL21A (UniProt Q8WXB1)	0.425	-0.307	0.26
BAG3 (UniProt O95817)	-0.145	0.303	0.236
THEM6 (UniProt Q8WUY1)	0.308	0.289	0.723
VPS29 (UniProt Q9UBQ0)	-0.418	-0.247	-0.613
GDA (UniProt Q9Y2T3)	0.244	0.292	0.0168
DIP2B (UniProt Q9P265)	0.206	0.147	-0.222
PKN2 (UniProt Q16513)	0.0683	0.467	0.144
PTTG1 (UniProt O95997)	-1.19	-1.5	-1.58
MORF4L1 (UniProt Q9UBU8)	-0.486	0.0693	0.343
CMSS1 (UniProt Q9BQ75)	0.27	0.0303	-2.12
KLC1 (UniProt Q07866)	-0.0381	-0.129	-0.0989
PLPP3 (UniProt O14495)	0.394	0.448	0.384
BTF3L4 (UniProt Q96K17)	0.212	0.17	-0.154
REEP6 (UniProt Q96HR9)	0.703	0.825	0.0059
ELAVL1 (UniProt Q15717)	-0.0114	0.173	-0.765
TMOD1 (UniProt P28289)	0.167	0.298	0.225
